Source: US8022209B2, “Substituted nitrogen-containing heteroaryl derivatives useful as modulators of the histamine H4 receptor” (Janssen Pharmaceutica NV, priority 2007, dated 2011)

Target: T1, human histamine H4 receptor (Homo sapiens, UniProt Q9H3N8)
T1 construct: expressed in transfected cells; host or cells: SK-N-MC cells or COS7 cells, transiently transfected with pH4R; cell membranes
Experiment: Binding Assay on Recombinant Human Histamine H4 Receptor
Conditions: competition binding vs 3H-histamine (5 nM, KD 5 nM), membranes of SK-N-MC or COS7 cells transfected with human H4R; Cheng-Prusoff; average of results obtained
Method: Binding Assay on Recombinant Human Histamine H4 Receptor
SK-N-MC cells or COS7 cells were transiently transfected with pH4R and grown in 150 cm^2 tissue culture dishes. Cells were washed with saline solution, scraped with a cell scraper and collected by centrifugation (1000 rpm, 5 min). Cell membranes were prepared by homogenization of the cell pellet in 20 mM Tris-HCl with a polytron tissue homogenizer for 10 sec at high speed. Homogenate was centrifuged at 1000 rpm for 5 min at 4° C. The supernatant was then collected and centrifuged at 20,000×g for 25 min at 4° C. The final pellet was resuspended in 50 mM Tris-HCl. Cell membranes were incubated with ^3H-histamine (5-70 nM) in the presence or absence of excess histamine (10,000 nM). Incubation occurred at room temperature for 45 min. Membranes were harvested by rapid filtration over Whatman GF/C filters and washed 4 times with ice-cold 50 mM Tris HCl. Filters were then dried, mixed with scintillant and counted for radioactivity. SK-N-MC or COS7 cells expressing human histamine H4 receptor were used to measure the affinity of binding of other compounds and their ability to displace ^3H-ligand binding by incubating the above-described reaction in the presence of various concentrations of inhibitor or compound to be tested. For competition binding studies using ^3H-histamine, Ki values were calculated, based on an experimentally determined KD value of 5 nM and a ligand concentration of 5 nM, according to Y. C.

T1 sequence (Q9H3N8 whole entry): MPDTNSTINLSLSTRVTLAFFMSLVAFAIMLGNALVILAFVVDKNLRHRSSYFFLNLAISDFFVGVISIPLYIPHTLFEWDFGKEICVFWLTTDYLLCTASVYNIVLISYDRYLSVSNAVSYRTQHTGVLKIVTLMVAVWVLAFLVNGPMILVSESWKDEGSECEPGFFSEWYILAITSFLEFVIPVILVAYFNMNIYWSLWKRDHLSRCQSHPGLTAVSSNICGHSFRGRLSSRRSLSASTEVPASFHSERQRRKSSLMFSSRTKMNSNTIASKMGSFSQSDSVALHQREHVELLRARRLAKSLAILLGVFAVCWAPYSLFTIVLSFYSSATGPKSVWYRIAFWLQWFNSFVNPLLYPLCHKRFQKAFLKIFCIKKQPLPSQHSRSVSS

Row | Structure (SMILES) | Ki
1 | CN1CCN(c2ncnc(-c3ccc(Br)cc3)n2)CC1 [compound 10, 2-(4-Bromo-phenyl)-4-(4-methyl-piperazin-1-yl)-[1,3,5]triazine] | 36 nM
2 | CN1CCN(c2ncnc(-c3cc(Cl)sc3Cl)n2)CC1 [compound 143, 2-(2,5-Dichloro-thiophen-3-yl)-4-(4-methyl-piperazin-1-yl)-[1,3,5]triazine] | 193 nM
3 | CN1CCN(c2ccnc(-c3cccc(Cl)c3Cl)c2)CC1 [compound 35] | 130 nM
4 | Cc1ccsc1-c1ncnc(N2CCN(C)CC2)n1 [compound 140, 2-(4-Methyl-piperazin-1-yl)-4-(3-methyl-thiophen-2-yl)-[1,3,5]triazine] | 52 nM
5 | CN1CCN(c2ncnc(-c3cccc(C(F)(F)F)c3)n2)CC1 [compound 8, 2-(4-Methyl-piperazin-1-yl)-4-(3-trifluoromethyl-phenyl)-[1,3,5]triazine] | 73 nM
6 | CN1CCN(c2ncnc(-c3cccc(-c4ccccc4)c3)n2)CC1 [compound 108, 2-Biphenyl-3-yl-4-(4-methyl-piperazin-1-yl)-[1,3,5]triazine] | 1930 nM
7 | CNC1CCN(c2ccnc(-c3ccsc3)c2)C1 (stereo not shown) [compound 66] | 216 nM
8 | CN1CCN(c2ncnc(-c3ccccn3)n2)CC1 [compound 139, 2-(4-Methyl-piperazin-1-yl)-4-pyridin-2-yl-[1,3,5]triazine] | 857 nM
9 | CN(C)CCN(C)c1ccnc(-c2ccsc2)c1 [compound 41] | 2600 nM
10 | CN(C)C1CCN(c2ccnc(-c3ccsc3)c2)C1 (stereo not shown) [compound 42] | 767 nM
11 | CN1CCN(c2ncnc(-c3ccc(Br)s3)n2)CC1 [compound 18, 2-(5-Bromo-thiophen-2-yl)-4-(4-methyl-piperazin-1-yl)-[1,3,5]triazine] | 37 nM
12 | CN1CCN(c2ncnc(-c3ccoc3)n2)CC1 [compound 6, 2-Furan-3-yl-4-(4-methyl-piperazin-1-yl)-[1,3,5]triazine] | 115 nM
13 | Cc1ccc(-c2cc(N3CCN(C)CC3)ccn2)cc1F [compound 31] | 75 nM
